Test results as given in ChEMBL document CHEMBL4507256 (2021).

What was measured:
[1] = biological target: AP2-associated protein kinase 1 (Homo sapiens) (UniProt Q2M2I8); settings: Compound concentration 1000.0 nM
[2] = biological target: Activin receptor type-2A (Homo sapiens) (UniProt P27037); settings: Compound concentration 1000.0 nM
[3] = biological target: RAC-gamma serine/threonine-protein kinase (Homo sapiens) (UniProt Q9Y243); settings: Compound concentration 1000.0 nM
[4] = biological target: Aurora kinase B (Homo sapiens) (UniProt Q96GD4); settings: Compound concentration 1000.0 nM
[5] = biological target: Bone morphogenetic protein receptor type-2 (Homo sapiens) (UniProt Q13873); settings: Compound concentration 1000.0 nM
[6] = biological target: Calcium/calmodulin-dependent protein kinase type 1 (Homo sapiens) (UniProt Q14012); settings: Compound concentration 1000.0 nM
[7] = biological target: Calcium/calmodulin-dependent protein kinase type II subunit delta (Homo sapiens) (UniProt Q13557); settings: Compound concentration 1000.0 nM
[8] = biological target: Peripheral plasma membrane protein CASK (Homo sapiens) (UniProt O14936); settings: Compound concentration 1000.0 nM
[9] = biological target: Serine/threonine-protein kinase Chk1 (Homo sapiens) (UniProt O14757); settings: Compound concentration 1000.0 nM
[10] = biological target: Dual specificity protein kinase CLK4 (Homo sapiens) (UniProt Q9HAZ1); settings: Compound concentration 1000.0 nM
[11] = biological target: Serine/threonine-protein kinase DCLK2 (Homo sapiens) (UniProt Q8N568); settings: Compound concentration 1000.0 nM
[12] = biological target: Discoidin domain-containing receptor 2 (Homo sapiens) (UniProt Q16832); settings: Compound concentration 1000.0 nM
[13] = biological target: Dual specificity tyrosine-phosphorylation-regulated kinase 1A (Homo sapiens) (UniProt Q13627); settings: Compound concentration 1000.0 nM
[14] = tested on: Epidermal growth factor receptor (Homo sapiens), P00533 [UNDEFINED MUTATION]; settings: Compound concentration 1000.0 nM
[15] = tested on: Epidermal growth factor receptor (Homo sapiens), P00533 [L861Q]; settings: Compound concentration 1000.0 nM
[16] = biological target: Ephrin type-A receptor 5 (Homo sapiens) (UniProt P54756); settings: Compound concentration 1000.0 nM
[17] = biological target: Tyrosine-protein kinase Fes/Fps (Homo sapiens) (UniProt P07332); settings: Compound concentration 1000.0 nM
[18] = biological target: Cyclin-G-associated kinase (Homo sapiens) (UniProt O14976); settings: Compound concentration 1000.0 nM
[19] = biological target: Homeodomain-interacting protein kinase 1 (Homo sapiens) (UniProt Q86Z02); settings: Compound concentration 1000.0 nM
[20] = biological target: Inhibitor of nuclear factor kappa-B kinase subunit beta (Homo sapiens) (UniProt O14920); settings: Compound concentration 1000.0 nM
[21] = biological target: Inhibitor of nuclear factor kappa-B kinase subunit epsilon (Homo sapiens) (UniProt Q14164); settings: Compound concentration 1000.0 nM
[22] = biological target: Tyrosine-protein kinase JAK3 (Homo sapiens) (UniProt P52333); settings: Compound concentration 1000.0 nM
[23] = biological target: MAP/microtubule affinity-regulating kinase 4 (Homo sapiens) (UniProt Q96L34); settings: Compound concentration 1000.0 nM
[24] = tested on: Hepatocyte growth factor receptor (Homo sapiens), P08581 [Y1235D]; settings: Compound concentration 1000.0 nM
[25] = biological target: Serine/threonine-protein kinase Nek2 (Homo sapiens) (UniProt P51955); settings: Compound concentration 1000.0 nM
[26] = biological target: Phosphatidylinositol 4,5-bisphosphate 3-kinase catalytic subunit alpha isoform (Homo sapiens) (UniProt P42336); settings: Compound concentration 1000.0 nM
[27] = tested on: Phosphatidylinositol 4,5-bisphosphate 3-kinase catalytic subunit alpha isoform (Homo sapiens), P42336 [I800L]; settings: Compound concentration 1000.0 nM
[28] = biological target: Serine/threonine-protein kinase pim-1 (Homo sapiens) (UniProt P11309); settings: Compound concentration 1000.0 nM
[29] = biological target: Phosphatidylinositol 4-phosphate 5-kinase type-1 gamma (Homo sapiens) (UniProt O60331); settings: Compound concentration 1000.0 nM
[30] = biological target: cGMP-dependent protein kinase 2 (Homo sapiens) (UniProt Q13237); settings: Compound concentration 1000.0 nM
[31] = biological target: Receptor-interacting serine/threonine-protein kinase 4 (Homo sapiens) (UniProt P57078); settings: Compound concentration 1000.0 nM
[32] = biological target: Ribosomal protein S6 kinase alpha-6 (Homo sapiens) (UniProt Q9UK32); settings: Compound concentration 1000.0 nM
[33] = biological target: Serine/threonine-protein kinase 33 (Homo sapiens) (UniProt Q9BYT3); settings: Compound concentration 1000.0 nM
[34] = biological target: Serine/threonine-protein kinase 36 (Homo sapiens) (UniProt Q9NRP7); settings: Compound concentration 1000.0 nM
[35] = biological target: Serine/threonine-protein kinase TAO1 (Homo sapiens) (UniProt Q7L7X3); settings: Compound concentration 1000.0 nM
[36] = biological target: Activated CDC42 kinase 1 (Homo sapiens) (UniProt Q07912); settings: Compound concentration 1000.0 nM
[37] = biological target: Serine/threonine-protein kinase TNNI3K (Homo sapiens) (UniProt Q59H18); settings: Compound concentration 1000.0 nM
[38] = biological target: Serine/threonine-protein kinase ULK3 (Homo sapiens) (UniProt Q6PHR2); settings: Compound concentration 1000.0 nM
[39] = biological target: Serine/threonine-protein kinase WNK1 (Homo sapiens) (UniProt Q9H4A3); settings: Compound concentration 1000.0 nM
[40] = biological target: Serine/threonine-protein kinase WNK4 (Homo sapiens) (UniProt Q96J92); settings: Compound concentration 1000.0 nM
[41] = biological target: Sodium-dependent noradrenaline transporter (Homo sapiens) (UniProt P23975); settings: Compound concentration 10.0 uM
[42] = biological target: Muscarinic acetylcholine receptor M3 (Homo sapiens) (UniProt P20309); settings: Compound concentration 10.0 uM
[43] = biological target: GABA-A receptor; anion channel (Rattus norvegicus) (UniProt O09028+P15431+P18506+P18508+P19969+P20236+P23574+P23576+P28471+P28473+P30191+P62813+P63079+P63138+Q91ZM7+Q9ES14); settings: Compound concentration 10.0 uM

Calcium/calmodulin-dependent protein kinase type 1 (Homo sapiens), sequence (Q14012 whole entry, looked up): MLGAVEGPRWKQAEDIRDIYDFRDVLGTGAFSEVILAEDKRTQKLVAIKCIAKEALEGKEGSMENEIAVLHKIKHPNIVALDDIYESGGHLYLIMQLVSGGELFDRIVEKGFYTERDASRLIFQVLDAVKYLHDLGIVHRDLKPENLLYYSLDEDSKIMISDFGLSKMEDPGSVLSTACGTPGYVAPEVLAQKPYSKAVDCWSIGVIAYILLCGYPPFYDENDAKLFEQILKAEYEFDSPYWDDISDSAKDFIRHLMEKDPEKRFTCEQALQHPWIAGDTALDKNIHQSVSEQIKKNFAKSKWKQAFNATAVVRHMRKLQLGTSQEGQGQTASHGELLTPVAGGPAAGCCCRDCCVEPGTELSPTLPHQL
Serine/threonine-protein kinase 36 (Homo sapiens), sequence (Q9NRP7 whole entry): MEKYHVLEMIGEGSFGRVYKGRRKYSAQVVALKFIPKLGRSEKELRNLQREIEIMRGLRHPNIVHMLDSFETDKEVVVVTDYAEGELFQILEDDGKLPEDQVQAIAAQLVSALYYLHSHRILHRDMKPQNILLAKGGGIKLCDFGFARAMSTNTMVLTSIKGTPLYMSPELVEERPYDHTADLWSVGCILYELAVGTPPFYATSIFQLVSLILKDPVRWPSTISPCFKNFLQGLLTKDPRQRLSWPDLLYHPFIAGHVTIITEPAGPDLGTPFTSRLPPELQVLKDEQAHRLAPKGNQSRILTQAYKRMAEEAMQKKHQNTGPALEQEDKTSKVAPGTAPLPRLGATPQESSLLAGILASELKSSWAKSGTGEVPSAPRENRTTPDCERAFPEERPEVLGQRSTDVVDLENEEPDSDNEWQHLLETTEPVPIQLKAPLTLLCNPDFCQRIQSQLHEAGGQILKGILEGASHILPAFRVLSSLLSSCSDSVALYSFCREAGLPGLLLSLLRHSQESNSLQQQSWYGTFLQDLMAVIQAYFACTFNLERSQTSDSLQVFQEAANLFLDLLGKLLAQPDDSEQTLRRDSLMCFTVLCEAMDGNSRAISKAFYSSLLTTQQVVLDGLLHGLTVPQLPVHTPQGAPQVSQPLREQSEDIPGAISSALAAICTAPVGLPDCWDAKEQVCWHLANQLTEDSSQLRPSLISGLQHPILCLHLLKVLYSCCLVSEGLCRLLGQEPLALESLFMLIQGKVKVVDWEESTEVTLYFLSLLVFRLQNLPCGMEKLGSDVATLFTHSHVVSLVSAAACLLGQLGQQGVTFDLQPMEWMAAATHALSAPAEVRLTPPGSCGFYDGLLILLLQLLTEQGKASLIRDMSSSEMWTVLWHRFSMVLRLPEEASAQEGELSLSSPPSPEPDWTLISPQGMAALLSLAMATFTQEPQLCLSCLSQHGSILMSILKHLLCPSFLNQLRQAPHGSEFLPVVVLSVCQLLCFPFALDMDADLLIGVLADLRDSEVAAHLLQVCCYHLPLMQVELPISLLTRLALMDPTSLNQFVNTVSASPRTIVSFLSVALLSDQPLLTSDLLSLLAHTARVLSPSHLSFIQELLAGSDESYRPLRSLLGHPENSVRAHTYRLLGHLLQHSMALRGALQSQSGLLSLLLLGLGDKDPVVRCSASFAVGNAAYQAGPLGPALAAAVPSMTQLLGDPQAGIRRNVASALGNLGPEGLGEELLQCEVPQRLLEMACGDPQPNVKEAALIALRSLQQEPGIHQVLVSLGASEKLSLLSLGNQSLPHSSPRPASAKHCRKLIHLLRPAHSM
Serine/threonine-protein kinase DCLK2 (Homo sapiens), sequence (Q8N568 whole entry, the tested form may be a part): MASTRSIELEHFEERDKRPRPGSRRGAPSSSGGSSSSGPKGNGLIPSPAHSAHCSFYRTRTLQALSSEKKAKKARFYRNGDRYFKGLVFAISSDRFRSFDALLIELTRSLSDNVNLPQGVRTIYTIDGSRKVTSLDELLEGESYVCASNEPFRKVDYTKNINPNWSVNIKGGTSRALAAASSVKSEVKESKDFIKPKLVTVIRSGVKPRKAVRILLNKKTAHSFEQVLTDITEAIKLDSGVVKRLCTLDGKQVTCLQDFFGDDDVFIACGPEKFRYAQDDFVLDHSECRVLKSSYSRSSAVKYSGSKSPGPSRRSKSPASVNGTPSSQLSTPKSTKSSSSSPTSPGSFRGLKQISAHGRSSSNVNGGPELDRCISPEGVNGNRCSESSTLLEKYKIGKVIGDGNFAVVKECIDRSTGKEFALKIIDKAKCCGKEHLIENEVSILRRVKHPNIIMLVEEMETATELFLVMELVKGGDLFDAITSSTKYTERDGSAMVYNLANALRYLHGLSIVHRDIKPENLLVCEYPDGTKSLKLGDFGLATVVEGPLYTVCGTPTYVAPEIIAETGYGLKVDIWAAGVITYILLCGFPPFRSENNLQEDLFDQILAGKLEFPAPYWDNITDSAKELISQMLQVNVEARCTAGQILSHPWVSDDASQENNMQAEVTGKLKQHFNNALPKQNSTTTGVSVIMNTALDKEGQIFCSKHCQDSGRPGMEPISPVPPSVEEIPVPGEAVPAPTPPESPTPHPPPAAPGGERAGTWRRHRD
Serine/threonine-protein kinase 33 (Homo sapiens), sequence (Q9BYT3 whole entry, looked up): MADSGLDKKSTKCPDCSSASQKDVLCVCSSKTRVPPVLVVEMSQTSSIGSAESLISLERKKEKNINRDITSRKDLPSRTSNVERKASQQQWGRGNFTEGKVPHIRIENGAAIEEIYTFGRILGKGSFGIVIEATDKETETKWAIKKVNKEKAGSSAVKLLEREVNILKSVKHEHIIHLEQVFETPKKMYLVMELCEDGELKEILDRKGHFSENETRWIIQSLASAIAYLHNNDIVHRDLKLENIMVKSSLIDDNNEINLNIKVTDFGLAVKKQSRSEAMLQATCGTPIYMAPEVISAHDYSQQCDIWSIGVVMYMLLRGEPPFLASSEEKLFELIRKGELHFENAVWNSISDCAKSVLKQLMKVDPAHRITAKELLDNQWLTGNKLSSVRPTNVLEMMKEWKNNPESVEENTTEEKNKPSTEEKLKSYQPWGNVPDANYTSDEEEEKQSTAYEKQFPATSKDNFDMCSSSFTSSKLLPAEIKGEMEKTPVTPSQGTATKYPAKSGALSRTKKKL
Receptor-interacting serine/threonine-protein kinase 4 (Homo sapiens), sequence (P57078 whole entry): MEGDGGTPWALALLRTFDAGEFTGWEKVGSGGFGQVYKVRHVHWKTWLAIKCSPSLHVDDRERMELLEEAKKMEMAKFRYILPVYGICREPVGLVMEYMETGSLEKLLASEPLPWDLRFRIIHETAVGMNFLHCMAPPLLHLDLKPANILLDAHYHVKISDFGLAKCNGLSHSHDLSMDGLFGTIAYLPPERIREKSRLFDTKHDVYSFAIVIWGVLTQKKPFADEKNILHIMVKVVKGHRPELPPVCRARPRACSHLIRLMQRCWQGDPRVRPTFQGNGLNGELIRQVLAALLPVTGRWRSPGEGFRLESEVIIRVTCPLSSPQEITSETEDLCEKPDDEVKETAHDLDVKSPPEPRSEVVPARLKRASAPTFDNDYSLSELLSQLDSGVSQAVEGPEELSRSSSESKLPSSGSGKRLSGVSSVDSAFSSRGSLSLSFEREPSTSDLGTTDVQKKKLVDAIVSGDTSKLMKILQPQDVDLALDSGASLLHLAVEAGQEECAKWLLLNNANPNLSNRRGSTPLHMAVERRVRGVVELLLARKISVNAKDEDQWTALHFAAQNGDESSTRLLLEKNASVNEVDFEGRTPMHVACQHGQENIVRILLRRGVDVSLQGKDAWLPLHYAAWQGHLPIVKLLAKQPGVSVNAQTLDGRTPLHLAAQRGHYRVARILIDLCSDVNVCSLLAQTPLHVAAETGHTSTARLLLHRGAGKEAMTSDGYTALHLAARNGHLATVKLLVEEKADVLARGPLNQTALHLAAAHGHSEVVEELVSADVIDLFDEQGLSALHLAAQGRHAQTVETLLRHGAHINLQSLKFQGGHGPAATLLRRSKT
Discoidin domain-containing receptor 2 (Homo sapiens), sequence (Q16832 whole entry, the tested form may be a part): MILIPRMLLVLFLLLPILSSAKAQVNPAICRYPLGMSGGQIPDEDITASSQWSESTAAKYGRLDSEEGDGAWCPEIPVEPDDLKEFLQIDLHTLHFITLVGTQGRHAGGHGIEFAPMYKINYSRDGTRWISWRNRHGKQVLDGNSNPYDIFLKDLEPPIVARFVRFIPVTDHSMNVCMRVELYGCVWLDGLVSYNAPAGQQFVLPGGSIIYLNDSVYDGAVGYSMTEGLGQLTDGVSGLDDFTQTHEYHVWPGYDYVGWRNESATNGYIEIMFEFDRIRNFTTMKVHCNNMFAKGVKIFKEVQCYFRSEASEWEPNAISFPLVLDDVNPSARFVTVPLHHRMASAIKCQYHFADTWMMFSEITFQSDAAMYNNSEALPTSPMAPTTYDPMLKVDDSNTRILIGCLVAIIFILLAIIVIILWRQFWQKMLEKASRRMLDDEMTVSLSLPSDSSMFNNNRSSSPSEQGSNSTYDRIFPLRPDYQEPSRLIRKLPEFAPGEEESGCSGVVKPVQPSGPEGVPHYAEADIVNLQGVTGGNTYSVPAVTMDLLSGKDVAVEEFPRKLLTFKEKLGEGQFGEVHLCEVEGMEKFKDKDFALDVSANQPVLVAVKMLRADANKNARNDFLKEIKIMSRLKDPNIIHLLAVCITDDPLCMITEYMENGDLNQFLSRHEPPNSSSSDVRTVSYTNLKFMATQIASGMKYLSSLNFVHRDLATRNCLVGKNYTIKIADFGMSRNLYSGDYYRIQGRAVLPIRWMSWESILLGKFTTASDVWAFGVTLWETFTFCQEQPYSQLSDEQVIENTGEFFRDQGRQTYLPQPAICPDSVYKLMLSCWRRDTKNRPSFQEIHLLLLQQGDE
Serine/threonine-protein kinase pim-1 (Homo sapiens), sequence (P11309 whole entry, looked up): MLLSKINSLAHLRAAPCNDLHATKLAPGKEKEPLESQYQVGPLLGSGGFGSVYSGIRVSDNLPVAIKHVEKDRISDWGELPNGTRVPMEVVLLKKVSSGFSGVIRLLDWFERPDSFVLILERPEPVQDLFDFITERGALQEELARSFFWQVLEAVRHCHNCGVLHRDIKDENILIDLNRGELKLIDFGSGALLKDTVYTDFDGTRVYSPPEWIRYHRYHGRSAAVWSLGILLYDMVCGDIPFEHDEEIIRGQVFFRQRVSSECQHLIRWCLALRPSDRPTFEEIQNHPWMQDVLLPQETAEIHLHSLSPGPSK

CCC(=N\O)/C(C)=C/c1ccc(F)c(C)c1 [A-226]
inactive: residual activity [1] 98% | residual activity [2] 100% | residual activity [3] 89% | residual activity [4] 100% | residual activity [5] 100% | residual activity [6] 86% | residual activity [7] 100% | residual activity [8] 100% | residual activity [9] 83% | residual activity [10] 97% | residual activity [11] 83% | residual activity [12] 100% | residual activity [13] 100% | residual activity [14] 73% | residual activity [15] 68% | residual activity [16] 79% | residual activity [17] 93% | residual activity [18] 96% | residual activity [19] 97% | residual activity [20] 100% | residual activity [21] 100% | residual activity [22] 94% | residual activity [23] 88% | residual activity [24] 100% | residual activity [25] 100% | residual activity [26] 100% | residual activity [27] 100% | residual activity [28] 70% | residual activity [29] 78% | residual activity [30] 97% | residual activity [31] 100% | residual activity [32] 98% | residual activity [33] 96% | residual activity [34] 100% | residual activity [35] 100% | residual activity [36] 100% | residual activity [37] 53% | residual activity [38] 100% | residual activity [39] 100% | residual activity [40] 78% | inhibition [41] -0.42% | inhibition [42] -5.75% | inhibition [43] 20.3%

CCC(=N\O)/C(C)=C/c1ccc(F)cc1 [A-079]
inactive: residual activity [1] 89% | residual activity [2] 100% | residual activity [3] 83% | residual activity [4] 68% | residual activity [5] 81% | residual activity [6] 100% | residual activity [7] 99% | residual activity [8] 70% | residual activity [9] 83% | residual activity [10] 100% | residual activity [11] 96% | residual activity [12] 91% | residual activity [13] 91% | residual activity [14] 65% | residual activity [15] 60% | residual activity [16] 64% | residual activity [17] 73% | residual activity [18] 99% | residual activity [19] 80% | residual activity [20] 83% | residual activity [21] 94% | residual activity [22] 80% | residual activity [23] 100% | residual activity [24] 85% | residual activity [25] 100% | residual activity [26] 100% | residual activity [27] 100% | residual activity [28] 85% | residual activity [29] 100% | residual activity [30] 79% | residual activity [31] 83% | residual activity [32] 94% | residual activity [33] 100% | residual activity [34] 84% | residual activity [35] 100% | residual activity [36] 85% | residual activity [37] 70% | residual activity [38] 74% | residual activity [39] 83% | residual activity [40] 100% | inhibition [41] -2.32% | inhibition [42] -6.83% | inhibition [43] 21.5%
